The values below come from ChEMBL document CHEMBL4825722, “Discovery of Potent Selective Nonzinc Binding Autotaxin Inhibitor BIO-32546” (ACS Med Chem Lett, 2021).

What is called IC50 is the concentration at which inhibition is half-maximal. As usually defined, the inhibition is the relative decrease from the control value, in per cent. A lower inhibition goes with little suppression. The CL/F is the apparent clearance, not corrected for the fraction that reaches the circulation.

The structures appear in SMILES notation.

One data set has as its target Autotaxin (Homo sapiens, UniProt Q13822). The data set is described as follows: Inhibition of human ATX assessed as reduction in LPA formation using FS-3 as substrate preincubated for 30 mins followed by substrate addition and measured after 2 hrs by FRET assay.
For data set [1], the target named is T1, hERG (KCNH2) (Homo sapiens, UniProt Q12809). The data set can be described thus: Inhibition of human ERG at 10 uM by automated patch-clamp assay relative to control.
T1 sequence (Q12809 whole entry): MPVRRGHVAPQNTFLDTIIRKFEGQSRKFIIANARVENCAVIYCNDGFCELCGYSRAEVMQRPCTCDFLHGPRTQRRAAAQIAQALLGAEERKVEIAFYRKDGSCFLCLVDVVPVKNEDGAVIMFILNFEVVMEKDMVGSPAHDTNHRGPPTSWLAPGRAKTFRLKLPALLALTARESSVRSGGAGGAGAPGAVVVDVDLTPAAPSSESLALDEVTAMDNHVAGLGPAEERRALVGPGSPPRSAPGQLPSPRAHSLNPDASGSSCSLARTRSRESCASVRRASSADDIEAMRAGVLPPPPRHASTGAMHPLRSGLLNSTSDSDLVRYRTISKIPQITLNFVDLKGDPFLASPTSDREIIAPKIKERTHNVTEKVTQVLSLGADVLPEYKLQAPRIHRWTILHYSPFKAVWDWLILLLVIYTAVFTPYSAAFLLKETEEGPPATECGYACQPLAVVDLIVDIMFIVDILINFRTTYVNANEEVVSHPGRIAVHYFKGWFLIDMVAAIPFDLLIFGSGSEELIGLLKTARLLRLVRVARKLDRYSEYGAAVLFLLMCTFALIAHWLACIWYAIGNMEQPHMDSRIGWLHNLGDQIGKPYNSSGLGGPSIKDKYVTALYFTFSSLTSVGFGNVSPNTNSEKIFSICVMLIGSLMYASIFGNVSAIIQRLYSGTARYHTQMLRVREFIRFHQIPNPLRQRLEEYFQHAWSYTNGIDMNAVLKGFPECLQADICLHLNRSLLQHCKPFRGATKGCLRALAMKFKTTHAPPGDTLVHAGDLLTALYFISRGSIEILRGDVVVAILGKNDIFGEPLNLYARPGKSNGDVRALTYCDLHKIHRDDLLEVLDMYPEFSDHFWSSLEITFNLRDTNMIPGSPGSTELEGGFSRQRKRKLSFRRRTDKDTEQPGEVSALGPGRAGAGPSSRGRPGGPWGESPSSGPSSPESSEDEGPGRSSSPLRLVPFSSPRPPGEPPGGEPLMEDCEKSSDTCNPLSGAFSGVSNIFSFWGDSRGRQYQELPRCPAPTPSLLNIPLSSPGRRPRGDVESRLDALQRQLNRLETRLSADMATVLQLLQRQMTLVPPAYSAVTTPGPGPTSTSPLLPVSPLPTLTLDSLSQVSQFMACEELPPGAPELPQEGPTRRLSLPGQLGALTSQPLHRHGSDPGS
Data set [2] has as its target T1, hERG (KCNH2). The data set is described as follows: Inhibition of human ERG at 1 uM by automated patch-clamp assay relative to control. Background: Patch clamp records ionic current or voltage across a cell membrane.
A short description of data set [3]: Drug concentration in rat brain at 10 mg/kg, po after 4 hrs. It is filed as ADME, organism-based. As to conditions: read-out: Ct.
Data set [4] in a line: Protein binding in human plasma assessed as unbound fraction at 2 uM by rapid equilibrium dialysis method. It is filed as ADME, cell-free. (In general: In equilibrium dialysis free small molecules cross a membrane that holds back macromolecules.)
Data set [5] is described as follows: Clearance in rat at 10 mg/kg, po. It is filed as ADME, organism-based. The following applies: in vivo.
The nature of data set [6]: Total brain to plasma concentration ratio in rat at 10 mg/kg, po measured after 4 hrs. It is filed as ADME, organism-based. As to conditions: brain and plasma, read-out: BPR.
Data set [7] is described as follows: Protein binding in rat plasma assessed as unbound fraction. It is filed as ADME, cell-free.

As for `C[C@H]1CC[C@@H](Oc2ccc3cc(CN4C5CCCC4CC(C(=O)O)C5)ccc3c2C(F)(F)F)CC1` (some centres not stated), on Autotaxin, the IC50 is 38 nM. Further, the inhibition at 10 µM against hERG (KCNH2) [1] stood at 52.7%. For the same compound, the inhibition at 1 µM at hERG (KCNH2) [2] is 1.6%.
As to `O=C(NCCCP(=O)(O)O)c1ccc2c(C(F)(F)F)c(O[C@H]3CC[C@@H](C(F)(F)F)CC3)ccc2c1`, the IC50 at Autotaxin came out at 28 nM.
`C[C@H]1CC[C@@H](Oc2ccc3ccc(CN4C5CCC4CC(C(=O)O)C5)cc3c2C(F)(F)F)CC1` (some centres not stated): the IC50 at Autotaxin was 100 nM. This compound returned an inhibition at 10 µM against hERG (KCNH2) [1] of 65%. This compound registered an inhibition at 1 µM against hERG (KCNH2) [2] of 6%.
As for `C[C@H](c1ccc2ccc(O[C@H]3CC[C@@H](C)CC3)c(C(F)(F)F)c2c1)N1C2CCCC1CC(C(=O)O)C2` (some centres not stated), on Autotaxin, the IC50 stood at 330 nM. The compound further gave an inhibition at 10 µM against hERG (KCNH2) [1] of 29.6%. Also, at hERG (KCNH2) [2], the inhibition at 1 µM was determined as 8.4%.
For `O=C(O)C1CCN(Cc2ccc3c(C(F)(F)F)c(O[C@H]4CC[C@@H](C(F)(F)F)CC4)ccc3c2)CC1`, at Autotaxin, the IC50 came out at 370 nM. Testing at 10 µM against hERG (KCNH2) [1] gave an inhibition of 86.8%. On hERG (KCNH2) [2], the inhibition at 1 µM came out at 6.6%.
Take `O=C(O)CCCNC(=O)c1ccc2c(C(F)(F)F)c(O[C@H]3CC[C@@H](C(F)(F)F)CC3)ccc2c1`: the IC50 on Autotaxin came to 3700 nM.
In the case of `O=C(O)CCCNCc1ccc2c(C(F)(F)F)c(O[C@H]3CC[C@@H](C(F)(F)F)CC3)ccc2c1`, on Autotaxin, the IC50 amounted to 1300 nM.
On to `CCCCCCCCCCCCCC(=O)OC[C@@H](O)COP(=O)(O)O`, for which the IC50 on Autotaxin was found to be 110 nM.
Take `C[C@@H](c1ccc2ccc(O[C@H]3CC[C@@H](C)CC3)c(C(F)(F)F)c2c1)N1C2CCC1CC(C(=O)O)C2` (some centres not stated): the concentration at 4 h in data set [3] worked out at 103 ng/mL. Besides, the Fu stood at 0.18% in data set [4] and 0.22% in data set [7]. Besides, the CL/F in data set [5] turned out to be 94 mL/min/kg. In addition, the Kp at 4 h in data set [6] worked out at 0.8.
Regarding `C[C@H]1CC[C@@H](Oc2ccc3ccc(CN4C5CCCC4CC(C(=O)O)C5)cc3c2C(F)(F)F)CC1` (some centres not stated), the IC50 on Autotaxin amounted to 8.2 nM. On hERG (KCNH2) [1], this compound yielded an inhibition at 10 µM of 84%. The inhibition at 1 µM at hERG (KCNH2) [2] amounted to 12%.
As for `C[C@@H](c1ccc2ccc(O[C@H]3CC[C@@H](C)CC3)c(C(F)(F)F)c2c1)N1C2CCCC1CC(C(=O)O)C2` (some centres not stated), on Autotaxin, the IC50 came out at 3.6 nM. Also, at 10 µM the inhibition against hERG (KCNH2) [1] was 24.4%. The same compound showed an inhibition at 1 µM on hERG (KCNH2) [2] of 4.6%.
